Measurements from ChEMBL document CHEMBL1201862, “PubChem BioAssay data set” (2004).
Calls of active or inactive are those of the source.

Columns and labels:
Cytochrome P450 1A2 = biological target: T1, Cytochrome P450 1A2 (Homo sapiens, UniProt P05177);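 note: PubChem cytochrome P450 panel assay, CYP1A2 panel member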
T1 sequence (P05177 whole entry): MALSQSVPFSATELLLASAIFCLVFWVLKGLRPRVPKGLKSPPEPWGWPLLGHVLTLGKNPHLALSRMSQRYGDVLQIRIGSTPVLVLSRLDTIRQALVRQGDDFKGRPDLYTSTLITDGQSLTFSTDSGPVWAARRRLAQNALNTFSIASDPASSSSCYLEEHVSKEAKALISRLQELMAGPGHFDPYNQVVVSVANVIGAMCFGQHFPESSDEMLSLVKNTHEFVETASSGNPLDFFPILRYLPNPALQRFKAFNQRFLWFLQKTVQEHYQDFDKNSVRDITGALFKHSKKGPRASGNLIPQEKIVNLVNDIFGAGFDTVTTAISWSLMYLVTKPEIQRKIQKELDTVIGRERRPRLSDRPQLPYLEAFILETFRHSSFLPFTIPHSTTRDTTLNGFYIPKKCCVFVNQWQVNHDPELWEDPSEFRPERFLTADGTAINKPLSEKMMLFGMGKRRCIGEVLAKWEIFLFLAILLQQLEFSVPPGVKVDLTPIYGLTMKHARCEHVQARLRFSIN

Cytochrome P450 2D6 = Cytochrome P450 2D6 (Homo sapiens, UniProt P10635);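 note: CYP2D6 member of a cytochrome P450 panel assay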
Cytochrome P450 2D6, sequence (P10635 whole entry): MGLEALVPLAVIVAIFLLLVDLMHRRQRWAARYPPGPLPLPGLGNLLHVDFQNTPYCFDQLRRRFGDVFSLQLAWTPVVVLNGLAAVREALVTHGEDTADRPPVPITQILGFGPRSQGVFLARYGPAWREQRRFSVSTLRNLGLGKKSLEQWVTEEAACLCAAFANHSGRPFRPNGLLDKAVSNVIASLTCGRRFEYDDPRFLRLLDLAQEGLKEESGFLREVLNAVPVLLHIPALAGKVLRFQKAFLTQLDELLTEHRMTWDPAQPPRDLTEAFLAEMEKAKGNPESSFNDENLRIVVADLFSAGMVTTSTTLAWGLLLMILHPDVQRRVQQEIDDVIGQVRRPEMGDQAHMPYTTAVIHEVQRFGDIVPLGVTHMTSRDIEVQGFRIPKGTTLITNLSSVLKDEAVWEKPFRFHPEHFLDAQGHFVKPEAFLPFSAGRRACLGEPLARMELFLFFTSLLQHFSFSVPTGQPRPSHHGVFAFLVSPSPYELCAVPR

[1] = biological target: T2, Replicative DNA helicase DnaB (Mycobacterium tuberculosis, UniProt P9WMR3); assay: DnaB intein splicing inhibitors, dose response, biochemical, cell-free fluorescence (AID 449749); assay type: functional
T2 sequence (P9WMR3 whole entry): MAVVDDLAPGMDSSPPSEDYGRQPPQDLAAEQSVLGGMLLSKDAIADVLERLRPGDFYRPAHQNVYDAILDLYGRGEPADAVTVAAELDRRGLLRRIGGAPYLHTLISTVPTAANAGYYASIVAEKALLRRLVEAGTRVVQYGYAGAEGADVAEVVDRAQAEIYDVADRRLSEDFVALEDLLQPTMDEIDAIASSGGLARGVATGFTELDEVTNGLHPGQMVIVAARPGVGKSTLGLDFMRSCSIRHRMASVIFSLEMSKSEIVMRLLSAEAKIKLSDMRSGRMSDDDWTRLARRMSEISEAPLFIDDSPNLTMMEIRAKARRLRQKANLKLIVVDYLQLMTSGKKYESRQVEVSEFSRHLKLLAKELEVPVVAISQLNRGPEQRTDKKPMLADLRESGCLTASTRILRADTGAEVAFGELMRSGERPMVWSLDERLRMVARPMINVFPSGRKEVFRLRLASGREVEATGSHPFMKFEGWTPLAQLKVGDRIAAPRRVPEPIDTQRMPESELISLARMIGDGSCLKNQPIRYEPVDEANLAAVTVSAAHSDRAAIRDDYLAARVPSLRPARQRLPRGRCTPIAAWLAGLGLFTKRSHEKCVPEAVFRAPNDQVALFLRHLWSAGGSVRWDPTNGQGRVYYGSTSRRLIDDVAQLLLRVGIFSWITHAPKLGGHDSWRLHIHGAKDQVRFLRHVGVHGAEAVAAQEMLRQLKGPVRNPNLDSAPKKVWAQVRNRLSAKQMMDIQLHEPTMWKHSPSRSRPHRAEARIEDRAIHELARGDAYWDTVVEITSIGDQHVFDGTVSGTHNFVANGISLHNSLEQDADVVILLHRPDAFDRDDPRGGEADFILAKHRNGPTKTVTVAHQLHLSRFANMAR

[2] = biological target: Heat shock protein HSP 90-alpha (Homo sapiens, UniProt P07900); assay type: functional, organism-based
Protein RecA = biological target: T3, Protein RecA (Mycobacterium tuberculosis, UniProt P9WHJ3); assay: Fluorescence Cell-Free Homogeneous Dose Retest to Identify Inhibitors of RecA-Intein Splicing Activity. [Related pubchem assays (depositor defined):AID2097, AID2223, AID489010, AID492950]; assay type: functional
T3 sequence (P9WHJ3 whole entry): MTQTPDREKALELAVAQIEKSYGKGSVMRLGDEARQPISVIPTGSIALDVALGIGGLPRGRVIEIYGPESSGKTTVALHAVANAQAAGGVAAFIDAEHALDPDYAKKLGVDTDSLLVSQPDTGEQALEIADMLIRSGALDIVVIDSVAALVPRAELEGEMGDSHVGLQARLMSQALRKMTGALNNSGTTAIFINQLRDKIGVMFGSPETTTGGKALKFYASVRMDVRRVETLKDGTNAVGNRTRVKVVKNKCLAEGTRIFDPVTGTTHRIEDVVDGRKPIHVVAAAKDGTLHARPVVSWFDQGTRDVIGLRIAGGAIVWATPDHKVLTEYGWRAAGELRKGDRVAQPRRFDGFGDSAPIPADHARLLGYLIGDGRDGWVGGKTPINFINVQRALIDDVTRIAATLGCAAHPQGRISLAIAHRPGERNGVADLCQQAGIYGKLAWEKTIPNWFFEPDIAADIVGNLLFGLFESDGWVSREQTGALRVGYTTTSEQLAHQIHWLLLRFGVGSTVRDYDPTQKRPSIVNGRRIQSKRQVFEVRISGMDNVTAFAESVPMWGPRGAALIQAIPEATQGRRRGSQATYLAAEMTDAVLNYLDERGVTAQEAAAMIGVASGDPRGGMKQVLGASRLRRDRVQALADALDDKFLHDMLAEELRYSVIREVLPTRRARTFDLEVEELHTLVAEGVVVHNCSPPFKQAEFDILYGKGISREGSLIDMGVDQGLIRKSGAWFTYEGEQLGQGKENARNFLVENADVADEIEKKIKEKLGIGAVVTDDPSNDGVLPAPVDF

[3] = Luminescence Cell-Based Dose Confirmation HTS to Identify Activators of 5'UTR Stem-Loop Driven Alpha-Synuclein mRNA Translation in H4 Neuroglioblastoma Cells. [Related pubchem assays: 1829 (Project Summary), 1814 (Primary HTS)]; assay type: functional
[4] = Luminescence Cell-Based Dose Response HTS to Identify Activators of Luciferase Translation or Activity in H4 […] Cells. [Related pubchem assays: 1829 (Project Summary), 1814 (Primary HTS)]; assay type: functional
H4 = assay: Luminescence Cell-Based Dose Response HTS to Identify Activators of 5'UTR Stem-Loop Driven Prion Protein mRNA Translation in H4 Neuroglioblastoma Cells. [Related pubchem assays: 1829 (Project Summary), 1814 (Primary HTS)]; assay type: functional; conditions: Homo sapiens
[5] = biological target: T4, Corticotropin-releasing factor receptor 2/Corticotropin-releasing factor-binding protein (Homo sapiens, UniProt P24387+Q13324); assay: activators of CRF receptor 2 with binding protein – uHTS hits, confirmation (AID 602473); assay type: functional; conditions: read-out: EC50_Mean
T4 sequence (Q13324 whole entry): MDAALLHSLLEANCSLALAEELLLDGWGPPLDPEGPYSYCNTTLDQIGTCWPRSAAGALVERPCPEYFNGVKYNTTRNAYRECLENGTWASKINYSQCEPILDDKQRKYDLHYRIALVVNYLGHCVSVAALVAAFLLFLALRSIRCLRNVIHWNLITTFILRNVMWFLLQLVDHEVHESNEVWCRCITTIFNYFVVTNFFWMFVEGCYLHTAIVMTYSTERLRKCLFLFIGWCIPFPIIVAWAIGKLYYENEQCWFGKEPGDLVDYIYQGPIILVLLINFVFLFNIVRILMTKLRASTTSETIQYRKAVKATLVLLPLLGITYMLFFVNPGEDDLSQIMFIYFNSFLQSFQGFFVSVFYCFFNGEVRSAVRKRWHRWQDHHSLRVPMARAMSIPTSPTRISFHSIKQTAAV
T4 sequence (P24387 whole entry): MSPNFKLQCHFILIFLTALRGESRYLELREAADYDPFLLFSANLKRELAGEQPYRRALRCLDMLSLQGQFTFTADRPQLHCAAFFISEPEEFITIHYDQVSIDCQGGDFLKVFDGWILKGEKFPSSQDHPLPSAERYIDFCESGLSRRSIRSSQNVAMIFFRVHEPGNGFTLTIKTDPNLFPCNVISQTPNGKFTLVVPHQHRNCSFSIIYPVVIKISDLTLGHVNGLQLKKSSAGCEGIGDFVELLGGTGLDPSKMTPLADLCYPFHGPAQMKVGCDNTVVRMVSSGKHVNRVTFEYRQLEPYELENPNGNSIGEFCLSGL

[6] = biological target: T4, Corticotropin-releasing factor receptor 2/Corticotropin-releasing factor-binding protein; assay: Dose Response confirmation of uHTS hits for small molecule antagonists of the CRF-binding protein and CRF-R2 receptor complex.; assay type: functional; conditions: read-out: IC50_Mean
Cytochrome P450 3A4 = Cytochrome P450 3A4 (Homo sapiens, UniProt P08684);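 note: CYP3A4 tested as one member of a cytochrome P450 panel screen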
Cytochrome P450 3A4, sequence (P08684 whole entry): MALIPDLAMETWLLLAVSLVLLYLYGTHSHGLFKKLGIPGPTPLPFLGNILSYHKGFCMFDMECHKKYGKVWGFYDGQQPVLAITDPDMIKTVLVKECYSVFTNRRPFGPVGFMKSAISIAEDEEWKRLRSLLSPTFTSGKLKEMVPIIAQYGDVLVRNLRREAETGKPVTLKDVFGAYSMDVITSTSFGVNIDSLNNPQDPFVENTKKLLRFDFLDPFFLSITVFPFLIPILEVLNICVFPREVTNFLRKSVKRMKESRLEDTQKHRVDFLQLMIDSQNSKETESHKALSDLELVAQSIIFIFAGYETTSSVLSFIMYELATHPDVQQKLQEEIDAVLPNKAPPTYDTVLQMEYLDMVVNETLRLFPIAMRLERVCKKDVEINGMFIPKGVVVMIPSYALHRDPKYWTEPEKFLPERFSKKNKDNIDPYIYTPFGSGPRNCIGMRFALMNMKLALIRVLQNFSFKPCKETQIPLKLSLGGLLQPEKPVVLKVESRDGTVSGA

[7] = NIH3T3 cell viability loss – ATP luminescence, mouse fibroblasts, counter-screen, dose response (AID 2010); assay type: functional, cell-based;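 note: cells exposed to compound for about 90 hours before reading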
[8] = Trypanosoma cruzi growth suppression in host cells – NIH3T3 host cells, beta-gal luminescence, confirmation (AID 2044); assay type: functional, cell-based;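 note: intracellular parasites grown in NIH/3T3 mouse fibroblasts as host cells; luminescent beta-galactosidase reporter signal from transgenic T. cruzi replicating inside host cells; inhibitors lower the luminescence signal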
[9] = non-specific 3'UTR reporter inhibition in Clone20-Shn3RL – cell-based, Renilla luciferase, cherry-picked, counter-screen for Shn3 inhibitor project, dose response (AID 624133); assay type: functional
Cytochrome P450 2C19 = Cytochrome P450 2C19 (Homo sapiens, UniProt P33261); assay: Cytochrome panel assay with activity outcomes. Panel member name: p450-cyp2c19 Compounds with AC50 equal or less than 10 uM are considered active; assay type: functional; conditions: read-out: AC50
Cytochrome P450 2C19, sequence (P33261 whole entry): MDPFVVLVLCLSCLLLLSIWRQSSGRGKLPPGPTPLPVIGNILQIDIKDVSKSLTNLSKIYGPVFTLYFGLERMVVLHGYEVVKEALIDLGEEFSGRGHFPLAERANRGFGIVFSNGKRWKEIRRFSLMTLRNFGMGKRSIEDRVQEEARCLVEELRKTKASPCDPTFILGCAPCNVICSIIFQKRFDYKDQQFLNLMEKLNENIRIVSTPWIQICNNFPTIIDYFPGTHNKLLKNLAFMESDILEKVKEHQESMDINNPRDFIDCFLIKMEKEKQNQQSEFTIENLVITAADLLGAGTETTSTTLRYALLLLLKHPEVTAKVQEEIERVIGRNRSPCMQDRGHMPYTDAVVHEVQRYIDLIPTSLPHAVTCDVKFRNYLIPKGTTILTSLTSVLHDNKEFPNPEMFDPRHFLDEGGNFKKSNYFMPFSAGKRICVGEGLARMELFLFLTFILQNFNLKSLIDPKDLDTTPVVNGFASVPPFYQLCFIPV

Cytochrome P450 2C9 = Cytochrome P450 2C9 (Homo sapiens, UniProt P11712)
Cytochrome P450 2C9, sequence (P11712 whole entry): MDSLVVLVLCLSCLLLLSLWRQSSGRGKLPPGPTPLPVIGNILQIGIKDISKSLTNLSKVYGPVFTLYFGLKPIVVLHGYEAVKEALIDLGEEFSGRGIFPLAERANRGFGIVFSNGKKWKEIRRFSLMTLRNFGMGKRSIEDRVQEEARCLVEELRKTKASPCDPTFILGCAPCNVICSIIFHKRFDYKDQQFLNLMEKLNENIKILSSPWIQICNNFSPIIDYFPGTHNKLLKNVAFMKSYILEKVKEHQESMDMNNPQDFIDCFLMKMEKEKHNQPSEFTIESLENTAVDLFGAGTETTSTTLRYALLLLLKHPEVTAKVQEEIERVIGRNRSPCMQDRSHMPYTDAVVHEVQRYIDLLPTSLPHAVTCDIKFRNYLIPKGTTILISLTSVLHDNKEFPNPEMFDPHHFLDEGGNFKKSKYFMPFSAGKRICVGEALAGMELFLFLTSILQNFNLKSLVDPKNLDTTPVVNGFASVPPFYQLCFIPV

## COc1ccc(CC(=O)Nc2cccc(-c3nnc(-c4ccco4)o3)c2)cc1
Cytochrome P450 1A2
  AC50: 15.8 µM (inconclusive)
Cytochrome P450 2D6
  AC50: 20 µM (inconclusive)

## Oc1cc(-c2ccc(C3CCCCC3)cc2)[nH]n1
[1]
  AC50: 1.99 µM (active)
[2]
  AC50: 8 µM (active)
Protein RecA
  EC50: 1.01 µM (active)

## CCCOc1ccc(OCCSc2nnc(N)s2)cc1
[3]
  EC50: 23.1 µM (active)
[4]
  EC50: 15 µM (active)
H4
  EC50: 15.2 µM (active)

## COc1ccc2cc3cc(C(=O)NCCN4CCc5ccccc5C4)sc3nc2c1
[3]
  EC50: 6.85 µM (active)
[4]
  EC50: 17.8 µM (active)
H4
  EC50: 15.1 µM (active)

## CC(C)(C)C(=O)NC(=S)NCCc1ccccc1
[5]
  EC50: > 53 µM (inactive)
[6]
  IC50: > 47.1 µM (inactive)
Cytochrome P450 3A4
  AC50: 25.1 µM (inconclusive)

## Nc1ccc(Cc2nc3c(ccc4ccccc43)[nH]2)cc1
[3]
  EC50: 14 µM (active)
[4]
  EC50: 24.8 µM (active)
H4
  EC50: 14.7 µM (active)

## COc1cccc(C2(O)CC(C(F)(F)F)=NN2C(=O)c2ccccn2)c1 (centres undefined)
[3]
  EC50: 18.5 µM (active)
[4]
  EC50: > 120 µM (not active)
H4
  EC50: 7.55 µM (active)

## CC(=O)c1cc(-c2ccccc2)n(CC(=O)NC2CCCC2)c1C
[3]
  EC50: > 120 µM (not active)
[4]
  EC50: > 120 µM (not active)
H4
  EC50: > 120 µM (not active)

## CSc1nc2ccc(S(=O)(=O)NC3CCCCC3)cc2s1
[2]
  AC50: 8.57 µM (active)

## O=C1C2C3C=CC(CO)(O3)C2C(=O)N1c1ccc(-c2ccccc2)cc1 (centres undefined)
[3]
  EC50: > 120 µM (not active)
[4]
  EC50: 8.45 µM (active)
H4
  EC50: 15.5 µM (active)

## CCOC(=O)C1CCCN(C(=O)c2cccc(S(=O)(=O)N(Cc3ccccc3)c3ccccc3OC)c2)C1 (centres undefined)
[5]
  EC50: > 53 µM (inactive)
[7]
  EC50: 35.2 µM (active)
[8]
  EC50: 3.84 µM (active)
[6]
  IC50: > 47.1 µM (inactive)

## CC(Sc1nnc(Cc2cccs2)n1C1CC1)C(=O)NC1CCS(=O)(=O)C1 (centres undefined)
[5]
  EC50: > 53 µM (inactive)
[6]
  IC50: > 47.1 µM (inactive)

## COc1ccc(OC(=O)c2ccc(Cl)cc2)c(C(C)=O)c1
[5]
  EC50: > 53 µM (inactive)
[6]
  IC50: > 47.1 µM (inactive)

## CC(C)(C)c1nc(CN2CCCCC2)cc(CN2CCCCC2)c1O
[5]
  EC50: > 53 µM (inactive)
[6]
  IC50: > 47.1 µM (inactive)

## Cc1cc(C)cc(C(=O)NCC(=O)OCC(=O)NCC(F)(F)F)c1
[9]
  AC50: 9.91 µM (active)

## c1ccc(CCn2nnnc2CN2CCCc3ccccc32)cc1
[5]
  EC50: > 53 µM (inactive)

## N#CC1=C(N)Oc2cc(N)ccc2C1C1CCCCC1 (centres undefined)
[3]
  EC50: > 120 µM (not active)
[4]
  EC50: > 120 µM (not active)
H4
  EC50: > 120 µM (not active)

## C#CCCCC(=S)Nc1ccccc1
Cytochrome P450 2C19
  AC50: 39.8 µM (inconclusive)
Cytochrome P450 3A4
  AC50: 25.1 µM (inconclusive)
Cytochrome P450 2C9
  AC50: 39.8 µM (inconclusive)
Cytochrome P450 2D6
  AC50: 39.8 µM (inconclusive)

## COc1ccc(-c2cc3cc(OC)c(OC)cc3cn2)cc1OC
[3]
  EC50: 10.2 µM (active)
[4]
  EC50: 21.7 µM (active)
H4
  EC50: 18 µM (active)

## O=C(CSCC(=O)OCn1nnc2ccccc2c1=O)Nc1ccc(Cl)cc1
Cytochrome P450 1A2
  AC50: 25.1 µM (inconclusive)
Cytochrome P450 2D6
  AC50: 25.1 µM (inconclusive)

## Cc1ccc(C2CN=NC23CCc2ccccc2C3=O)cc1 (centres undefined)
[3]
  EC50: 15.3 µM (active)
[4]
  EC50: 23.9 µM (active)
H4
  EC50: > 120 µM (not active)

## CC1(C)c2[nH]c3ccccc3c2C[C@H]2C(=O)N(Cc3ccccc3)C(=O)N21
[5]
  EC50: > 53 µM (inactive)
[6]
  IC50: > 47.1 µM (inactive)

## COc1ccc(OCC(O)CN2CCc3ccccc3C2)cc1 (centres undefined)
[5]
  EC50: > 53 µM (inactive)
[6]
  IC50: > 47.1 µM (inactive)

## COc1ccccc1-n1ccnc(SCC(=O)NCc2ccccc2Cl)c1=O
[9]
  AC50: 13 µM (active)

## O=[N+]([O-])c1ccc(O)c(C2CCCCC2)c1
[2]
  AC50: 8.09 µM (active)

## CCOC(=O)c1ccccc1N/C=C1\CCCCC1=O
Cytochrome P450 2C9
  AC50: 39.8 µM (inconclusive)
Cytochrome P450 2D6
  AC50: 35.5 µM (inconclusive)

## O=C1NC(c2cccc([N+](=O)[O-])c2)=CCN1c1ccccc1O [ICILLIN]
Cytochrome P450 1A2
  AC50: 31.6 µM (inconclusive)
Cytochrome P450 2D6
  AC50: 20 µM (inconclusive)
